The source of these data is patent US7314940B2, “Jun kinase inhibitors” (Eisai Co., Ltd., priority 2001, dated 2008).

Common to all, as to type: biochemical
The target of one assay is JNK3 (Homo sapiens, UniProt P53779). Briefly: JNK3 SPA assay. To be noted: phosphorylation of GST-c-Jun, 3.33 μM ATP. As to the method:
(§1) JNK1, JNK2, JNK3—SPA Assay
(§2) • 1. Compound is dissolved in DMSO to a convenient concentration and this is diluted in 10% DMSO to a five times concentrate of the desired starting concentration (frequently 1: 100). • 2. 10 μl of 500 mM EDTA is added to alternative wells of the Opti-plate row, which will receive kinase reaction plus DMSO. This creates the negative control. • 3. For the JNK2 and JNK3 assay, compounds are prepared in six 2-fold dilutions with water and each concentration is tested in duplicate. For the JNK1 assay compounds are prepared in four 5-fold dilutions with water which are tested in triplicate. Controls are treated identically. • 4. 20 μl per well of each compound concentration is transferred to an Opti-plate, in duplicate. • 5. 30 μl (JNK2/3 SPA) or 50 μl (JNK1 SPA) of substrate solution (25 mM HEPES pH 7.5, 10 mM magnesium acetate with 3.33 μM ATP (JNK2/3) or 2 μM ATP (JNK1), approximately 7.5 kBq [γ-^33P] ATP, GST-c-Jun, in water) is added to each well. • 6. 50 μl (JNK2/3 SPA) or 30 gl (JNK1 SPA) of kinase solution (JNK in 25 mM HEPES pH 7.5, 10 mM Mg Acetate) is added to each well.
(§3) • 7. The plate is incubated for 30 minutes at room temperature. • 8. 100 μl of bead/stop solution is added to each well (5 mg/ml glutathione-PVT-SPA beads, 40 mM ATP in PBS). • 9. Plates are sealed and incubated for 30 minutes at room temperature, centrifuged for 10 minutes at 2500 g and counted. • 10. The IC50 values are calculated as the concentration of the compound being tested at which the phosphorylation of c-Jun is decreased to 50% of the control value.

A further assay has as its target JNK2 (Homo sapiens, UniProt P45984). Briefly: JNK2 SPA assay. To be noted: phosphorylation of GST-c-Jun, 3.33 μM ATP. As to the method: as §1, §2, §3
In a further assay the target is JNK1 (Homo sapiens, UniProt P45983). In words: JNK1 SPA assay. To be noted: phosphorylation of GST-c-Jun, 2 μM ATP. As to the method: as §1, §2, §3
The next assay addresses T1, p38 MAP kinase (Homo sapiens, UniProt Q16539).
T1 construct: purchased Upstate
In words: p38 ELISA. To be noted: phosphorylation of GST-ATF2, 50 μM ATP. As to the method:
Active p38 kinase (100 ng; Upstate) was added to 2 μg GST-ATF2 substrate (NEB) in 250 mM Hepes pH 7.5/100 mM MgAc/50 μM ATP (final) in the presence or absence of compounds in 50 μl. The mixture was incubated at 30° C. for 1 hour, and then diluted with 200 μl PBS-Tween (0.05%). From this, duplicate volumes of 100 μl were added to a Reacti-Bind glutathione coated plate (Pierce) and incubated for 1 hour. After washing 3 times with PBS-Tween (0.05%), rabbit anti-phospho-ATF2 (Thr71) antibody (NEB) was added at 1:500, and incubated for another hour at room temperature. After 3 additional washes with PBS-Tween (0.05%), 100 μl of anti-rabbit IgG alkaline phosphatase-conjugated secondary antibody (Sigma) was added at 1:1000, the reaction was incubated for a further hour, washed 3 times, and then phosphatase substrate (Sigma) was added (100 μl per well; 3 tablets in 5 ml water). After incubation in the dark at 37° C. for 1 hour, the reaction mixture was transferred to a clear 96 well plate, and the absorbance at 405 nm was read. The IC50 values are calculated as the concentration of the compound being tested at which the phosphorylation of ATF2 is decreased to 50% of the control value.

Sequence of JNK3 (P53779 whole entry): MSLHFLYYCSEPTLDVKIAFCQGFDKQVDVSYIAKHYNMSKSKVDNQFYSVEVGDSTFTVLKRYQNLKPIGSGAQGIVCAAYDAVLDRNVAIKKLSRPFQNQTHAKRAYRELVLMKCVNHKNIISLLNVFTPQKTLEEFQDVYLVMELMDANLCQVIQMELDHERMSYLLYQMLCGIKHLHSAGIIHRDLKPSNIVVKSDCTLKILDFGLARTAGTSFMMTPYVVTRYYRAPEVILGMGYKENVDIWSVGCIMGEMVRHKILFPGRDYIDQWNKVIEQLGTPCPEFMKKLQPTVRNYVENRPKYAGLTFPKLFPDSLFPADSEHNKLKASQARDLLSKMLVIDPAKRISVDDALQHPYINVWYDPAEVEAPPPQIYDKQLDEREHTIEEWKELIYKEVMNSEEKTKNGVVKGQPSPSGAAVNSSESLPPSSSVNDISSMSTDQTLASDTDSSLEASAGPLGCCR
T1 sequence (Q16539 whole entry): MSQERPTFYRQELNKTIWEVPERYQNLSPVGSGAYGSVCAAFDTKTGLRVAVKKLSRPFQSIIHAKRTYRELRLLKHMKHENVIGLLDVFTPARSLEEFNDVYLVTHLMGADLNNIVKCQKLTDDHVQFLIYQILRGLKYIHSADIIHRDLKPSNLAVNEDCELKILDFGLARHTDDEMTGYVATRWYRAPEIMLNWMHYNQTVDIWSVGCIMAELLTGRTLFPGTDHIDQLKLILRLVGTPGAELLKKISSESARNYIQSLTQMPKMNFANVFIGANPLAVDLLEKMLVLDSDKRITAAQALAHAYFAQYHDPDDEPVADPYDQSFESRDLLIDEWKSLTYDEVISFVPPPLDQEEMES
Sequence of JNK2 (P45984 whole entry): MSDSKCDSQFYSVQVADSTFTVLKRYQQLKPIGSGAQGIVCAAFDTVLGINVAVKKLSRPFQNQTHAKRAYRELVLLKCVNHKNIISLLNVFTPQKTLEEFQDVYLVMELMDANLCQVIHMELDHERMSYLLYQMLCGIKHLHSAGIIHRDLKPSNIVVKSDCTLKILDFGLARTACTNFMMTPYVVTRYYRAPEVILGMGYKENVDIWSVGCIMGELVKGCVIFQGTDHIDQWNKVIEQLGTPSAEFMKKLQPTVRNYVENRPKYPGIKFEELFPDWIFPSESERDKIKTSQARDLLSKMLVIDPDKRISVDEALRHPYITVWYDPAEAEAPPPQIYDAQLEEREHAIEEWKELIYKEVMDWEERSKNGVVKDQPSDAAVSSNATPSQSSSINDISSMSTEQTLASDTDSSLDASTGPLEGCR
Sequence of JNK1 (P45983 whole entry): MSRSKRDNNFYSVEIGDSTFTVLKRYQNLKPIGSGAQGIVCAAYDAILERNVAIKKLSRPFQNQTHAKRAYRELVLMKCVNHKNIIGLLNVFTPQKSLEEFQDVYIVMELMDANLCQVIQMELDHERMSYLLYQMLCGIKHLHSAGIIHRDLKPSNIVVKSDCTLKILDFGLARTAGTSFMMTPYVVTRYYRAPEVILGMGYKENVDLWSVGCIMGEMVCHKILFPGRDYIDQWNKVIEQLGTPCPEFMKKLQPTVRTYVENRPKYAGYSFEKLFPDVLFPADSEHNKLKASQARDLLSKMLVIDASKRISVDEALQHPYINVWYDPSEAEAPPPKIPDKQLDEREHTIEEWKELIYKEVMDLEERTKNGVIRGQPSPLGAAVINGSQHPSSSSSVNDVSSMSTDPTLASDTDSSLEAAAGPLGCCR

`COc1ccc(COC[C@@H]2CCc3nc(-c4ccc(F)cc4)c(-c4ccnc(NC5CCC5)c4)n32)cc1` registered an IC50 at JNK3 of 0.023 µM.

Turning to `CCNc1nccc(-c2c(-c3ccc(F)cc3)nc3n2[C@H](COc2ncccn2)CC3)n1`, the IC50 against JNK3 was determined as 0.029 µM; against JNK2, 0.125 µM; at JNK1, 0.313 µM; against p38 MAP kinase it was 0.185 µM.

As for `CCCNc1nccc(-c2c(-c3ccc(F)cc3)nc3n2[C@H](COc2ccc4ccccc4n2)CC3)n1`, the IC50 at JNK3 worked out at 0.088 µM; against JNK2 it was 0.052 µM; on JNK1 it was 0.183 µM; at p38 MAP kinase, 0.27 µM.

For the compound `Fc1ccc(-c2nc3n(c2-c2ccnc(NC4CCC4)n2)[C@H](Cn2ccnc2)CC3)cc1`, the IC50 was found to be 0.007 µM on JNK3 and 0.022 µM against JNK1.

In turn, `CCNc1nccc(-c2c(-c3ccc(F)cc3)nc3n2[C@H](CN2C(=O)CCC2=O)CC3)n1` gave an IC50 against JNK3 of 0.017 µM.

At JNK3, `CCCNc1nccc(-c2c(-c3ccc(F)cc3)nc3n2[C@@H](COc2ccc4ccccc4n2)CC3)n1` gave an IC50 of 0.295 µM.

Take `CCNc1nccc(-c2c(-c3ccc(F)cc3)nc3n2[C@H](Cn2ccc4cccc(F)c42)CC3)n1`: the IC50 against JNK3 came out at 0.061 µM; at JNK2 it was 0.125 µM; against JNK1 it was 0.125 µM; on p38 MAP kinase, 0.696 µM.

On to `CCNc1nccc(-c2c(-c3ccc(F)cc3)nc3n2[C@H](COc2ccc4cccc([N+](=O)[O-])c4n2)CC3)n1`, for which the IC50 turned out to be 0.086 µM against JNK3, 0.038 µM at JNK2 and 0.137 µM on JNK1.

Compound `CCCNc1nccc(-c2c(-c3ccc(F)cc3)nc3n2[C@@H](Cn2ccc4ccccc42)CC3)n1` registered an IC50 on JNK3 of 0.15 µM.

As for `Cc1cc(OC[C@@H]2CCc3nc(-c4ccc(F)cc4)c(-c4ccnc(NC5CCC5)n4)n32)c2ccccc2n1`, the IC50 stood at 0.025 µM at JNK3, 0.03 µM against JNK2 and 0.078 µM at JNK1.

As for `Fc1ccc(-c2nc3n(c2-c2ccnc(NC4CCC4)n2)[C@H](CC2CCCC2)CC3)cc1`, on JNK3, the IC50 was 0.01 µM.

Turning to `O=C1CCC(=O)N1C[C@@H]1CCc2nc(-c3ccc(F)cc3)c(-c3ccnc(NC4CCC4)n3)n21`, the figures for the IC50 at JNK3 and at JNK1 were 0.006 µM and 0.06 µM, respectively.

For `COc1ccc(COC[C@H]2CCc3nc(-c4ccc(F)cc4)c(-c4ccnc(NC5CCC5)c4)n32)cc1`, the IC50 on JNK3 was found to be 0.301 µM.

For `Fc1ccc(-c2nc3n(c2-c2ccnc(NC4CCC4)n2)[C@H](CNc2ccccn2)CC3)cc1`, the IC50 on JNK3 worked out at 0.038 µM; on JNK2 it was 0.126 µM; at JNK1, 0.524 µM.

In the case of `CCNc1nccc(-c2c(-c3ccc(F)cc3)nc3n2[C@H](Cn2cccc2)CC3)n1`, the IC50 against JNK3 came to 0.014 µM; on JNK2, 0.013 µM; against JNK1, 0.027 µM; against p38 MAP kinase, 0.059 µM.

As to `CCCNc1nccc(-c2c(-c3ccc(F)cc3)nc3n2[C@H](Cn2ccc4ccccc42)CC3)n1`, the half-maximal inhibitory concentration (IC50) was found to be 0.091 µM against JNK3, 0.25 µM on JNK2, 0.636 µM at JNK1 and 0.619 µM against p38 MAP kinase.

In the case of `O=C(NC[C@@H]1CCc2nc(-c3ccc(F)cc3)c(-c3ccnc(NC4CCC4)n3)n21)c1ccccc1`, the IC50 came out at 0.054 µM on JNK3, 0.083 µM on JNK2 and 0.412 µM on JNK1.

Turning to `COc1ccc(CSC[C@@H]2CCc3nc(-c4ccc(F)cc4)c(-c4ccnc(NC5CCC5)n4)n32)cc1`, the IC50 on JNK3 worked out at 0.03 µM; against JNK1, 0.094 µM; on p38 MAP kinase, 0.148 µM.

Consider `Fc1ccc(SC[C@@H]2CCc3nc(-c4ccc(F)cc4)c(-c4ccnc(NC5CCC5)n4)n32)cc1`, for which the IC50 at JNK3 was determined as 0.008 µM; at JNK1 it was 0.092 µM.

Consider `Fc1ccc(-c2nc3n(c2-c2ccnc(NC4CCC4)n2)[C@H](COc2ccnc4ccccc24)CC3)cc1`, for which the IC50 came out at 0.071 µM at JNK3, 0.114 µM on JNK2 and 0.249 µM at JNK1.

For the compound `Fc1ccc(-c2nc3n(c2-c2ccnc(NC4CCC4)n2)[C@H](/C=C/c2cccs2)CC3)cc1`, the IC50 against JNK3 is 0.053 µM; at JNK1 it was 0.248 µM.

As usually defined, the IC50 is the midpoint of a concentration-inhibition curve. High values mean lower potency, low ones higher potency.
